Laboratory results reported in PubChem BioAssay (NCI).
Several values for one entry are separate records, joined by “and”; a condition that tells them apart may be missing. Equal values may be shown once.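 1) Cells in 96-well plates. 2) Compound, 48 h, 5 concentrations. 3) Linear interpolation between surrounding doses. 4) Unreached endpoint = highest concentration. Here, GI50 denotes the concentration required for 50% inhibition of growth. TGI is the concentration that stops growth completely.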

Tests used:
Experiment in all cases: NCI tumour cell line growth inhibition, 48 h
[1] = test system: NCI/ADR-RES ovarian
[2] = test system: SW-620 colon
[3] = test system: TK-10 renal
[4] = test system: SK-MEL-2 melanoma
[5] = test system: RXF 393 renal
[6] = test system: MDA-MB-231 breast
[7] = test system: HCT-116 colon
[8] = test system: MOLT-4 leukemia
[9] = test system: OVCAR-8 ovarian
[10] = test system: U251 CNS
[11] = test system: MALME-3M melanoma
[12] = test system: HOP-92 NSCLC
[13] = test system: SK-MEL-5 melanoma
[14] = test system: SR leukemia
[15] = test system: BT-549 breast
[16] = test system: M14 melanoma
[17] = test system: UO-31 renal
[18] = test system: NCI-H522 lung
[19] = test system: LOX IMVI melanoma
[20] = test system: A549 NSCLC
[21] = test system: MCF7 breast
[22] = test system: UACC-62 melanoma
[23] = test system: KM12 colon
[24] = test system: CAKI-1 renal
[25] = test system: SF-295 CNS
[26] = test system: OVCAR-5 ovarian
[27] = test system: NCI-H226 lung
[28] = test system: SNB-75 CNS
[29] = test system: SF-268 CNS
[30] = test system: NCI-H23 lung
[31] = test system: SN12C renal
[32] = test system: UACC-257 melanoma
[33] = test system: 786-0 renal
[34] = test system: EKVX NSCLC
[35] = test system: MDA-MB-435
[36] = test system: SK-MEL-28 melanoma
[37] = test system: NCI-H460 lung
[38] = test system: HT29 colon
[39] = test system: PC-3 prostate
[40] = test system: ACHN renal
[41] = test system: RPMI-8226 leukemia
[42] = test system: SK-OV-3 ovarian
[43] = test system: HS 578T breast
[44] = test system: K-562 leukemia
[45] = test system: HCC-2998 colon
[46] = test system: COLO 205 colon
[47] = test system: CCRF-CEM leukemia
[48] = test system: T-47D breast
[49] = test system: OVCAR-4 ovarian
[50] = test system: DU-145 prostate
[51] = test system: A498 renal
[52] = test system: SNB-19 CNS
[53] = test system: HL-60(TB) leukemia
[54] = test system: HCT-15 colon
[55] = test system: SF-539 CNS
[56] = test system: OVCAR-3 ovarian
[57] = test system: IGROV1 ovarian
[58] = test system: HOP-62 NSCLC

Compound: COc1ccc2c(c1)C(=O)c1c-2n(CCCN=[N+]=[N-])c(=O)c2cc([N+](=O)[O-])ccc12
- TGI [1]: > 100 µM
- GI50 [2]: < 0.001 µM
- TGI [2]: 0.783 µM
- GI50 [3]: 15.2 µM
- TGI [3]: 37.3 µM
- GI50 [4]: 14.5 µM
- TGI [4]: 39.1 µM
- GI50 [5]: 0.00139 µM
- GI50 [6]: 33.3 µM
- TGI [6]: > 100 µM
- TGI [7]: 9.11 µM
- GI50 [8]: < 0.001 µM
- TGI [9]: > 100 µM
- GI50 [10]: 0.16 µM
- GI50 [11]: 0.422 µM
- TGI [11]: 9.88 µM
- GI50 [12]: 0.0646 µM
- GI50 [13]: 0.0106 µM
- TGI [13]: 0.0849 µM
- TGI [14]: 13.4 µM
- TGI [15]: 1.3 µM
- TGI [16]: 1.3 µM
- GI50 [17]: < 0.001 µM
- TGI [17]: 2.22 µM
- GI50 [18]: < 0.001 µM
- TGI [18]: 0.657 µM
- GI50 [19]: 0.0707 µM and 0.177 µM
- TGI [19]: 0.737 µM
- TGI [20]: > 100 µM
- GI50 [21]: < 0.001 µM
- TGI [21]: 4.83 µM
- GI50 [22]: 0.225 µM
- TGI [22]: 0.991 µM
- GI50 [23]: 0.558 µM and 3.4 µM
- TGI [23]: > 100 µM
- GI50 [24]: 0.0018 µM
- TGI [24]: 0.00531 µM
- GI50 [25]: 0.033 µM
- TGI [25]: 0.222 µM and 0.529 µM
- TGI [26]: > 100 µM
- GI50 [27]: 0.268 µM
- TGI [27]: 0.874 µM
- GI50 [28]: 3.47 µM
- TGI [28]: 20.5 µM
- GI50 [29]: < 0.001 µM
- GI50 [30]: 0.244 µM
- TGI [30]: 18 µM
- GI50 [31]: 0.314 µM
- TGI [31]: 2.01 µM
- TGI [32]: > 100 µM
- TGI [33]: 0.708 µM
- TGI [34]: > 100 µM
- GI50 [35]: 0.252 µM and 0.491 µM
- TGI [35]: > 100 µM
- GI50 [36]: 15.1 µM
- TGI [36]: > 100 µM
- TGI [37]: 0.0469 µM
- GI50 [38]: 2.82 µM
- TGI [38]: > 100 µM
- TGI [39]: > 100 µM
- GI50 [40]: 0.0443 µM
- GI50 [41]: 0.0128 µM and 0.0101 µM
- TGI [41]: 0.264 µM and 1.35 µM
- GI50 [42]: 7.14 µM
- TGI [42]: 28.1 µM
- GI50 [43]: 16.2 µM
- TGI [43]: > 100 µM
- GI50 [44]: 0.0782 µM and 0.0653 µM
- TGI [44]: 16.3 µM
- GI50 [45]: 0.013 µM
- TGI [46]: > 100 µM
- GI50 [47]: < 0.001 µM
- TGI [47]: 0.0275 µM and 0.0272 µM
- GI50 [48]: 1.57 µM
- TGI [48]: > 100 µM

Compound: O=C1/C(=C/c2ccc(Cl)cc2)N=C(c2ccccc2)N1c1cc(C(F)(F)F)ccc1Cl
- GI50 [1]: 22.3 µM
- TGI [1]: 77.6 µM
- GI50 [2]: 28.9 µM
- TGI [2]: > 100 µM
- GI50 [3]: 31.7 µM
- TGI [3]: > 100 µM
- GI50 [4]: 17.5 µM
- TGI [4]: 45.4 µM
- GI50 [5]: 27.5 µM
- TGI [5]: > 100 µM
- GI50 [6]: 16 µM
- TGI [6]: 55.8 µM
- GI50 [7]: 16.8 µM
- TGI [7]: 48.3 µM
- GI50 [8]: 15.5 µM
- TGI [8]: 51.2 µM
- GI50 [9]: 28.6 µM
- TGI [9]: > 100 µM
- GI50 [10]: 22.5 µM
- TGI [10]: > 100 µM
- GI50 [11]: 27.7 µM
- TGI [11]: 86.5 µM
- GI50 [12]: 20.3 µM
- TGI [12]: 58.5 µM
- GI50 [13]: 16 µM
- TGI [13]: 29.5 µM
- GI50 [14]: 28.7 µM
- TGI [14]: 68 µM
- GI50 [16]: 22 µM
- TGI [16]: 90.1 µM
- GI50 [17]: 19.4 µM
- TGI [17]: > 100 µM
- GI50 [49]: 20.2 µM
- TGI [49]: 89.7 µM
- GI50 [50]: 31.2 µM
- TGI [50]: > 100 µM
- GI50 [18]: 20.1 µM
- TGI [18]: 76 µM
- GI50 [19]: 16.5 µM
- TGI [19]: 41.2 µM
- GI50 [20]: 24.2 µM
- TGI [20]: > 100 µM
- GI50 [21]: 17.6 µM
- TGI [21]: 57.9 µM
- GI50 [22]: 14 µM
- TGI [22]: 44.9 µM
- GI50 [51]: 36.7 µM
- TGI [51]: > 100 µM
- GI50 [52]: 36.4 µM
- TGI [52]: > 100 µM
- GI50 [23]: 21.9 µM
- TGI [23]: 84 µM
- GI50 [24]: 31 µM
- TGI [24]: 69.5 µM
- GI50 [25]: 17.2 µM
- TGI [25]: 48.8 µM
- GI50 [26]: 24.9 µM
- TGI [26]: 64.2 µM
- GI50 [27]: 23.6 µM
- TGI [27]: > 100 µM
- GI50 [28]: 18.6 µM
- TGI [28]: 78.7 µM
- GI50 [53]: 16.9 µM
- TGI [53]: 42.7 µM
- GI50 [29]: 28.8 µM
- TGI [29]: > 100 µM
- GI50 [30]: 34.4 µM
- TGI [30]: > 100 µM
- GI50 [31]: 30.5 µM
- TGI [31]: > 100 µM
- GI50 [54]: 18.9 µM
- TGI [54]: 86.6 µM
- GI50 [32]: 26.9 µM
- TGI [32]: 99.6 µM
- GI50 [55]: 18.1 µM
- TGI [55]: 44.3 µM
- GI50 [33]: 14.4 µM
- TGI [33]: 50.6 µM
- GI50 [34]: 21.9 µM
- TGI [34]: > 100 µM
- GI50 [35]: 22.7 µM
- TGI [35]: 71.4 µM
- GI50 [56]: 17.4 µM
- TGI [56]: 69 µM
- GI50 [57]: 18.5 µM
- TGI [57]: 85.7 µM
- GI50 [36]: 39.1 µM
- TGI [36]: > 100 µM
- GI50 [37]: 19.4 µM
- TGI [37]: 61.7 µM
- GI50 [38]: 24.1 µM
- TGI [38]: 73.5 µM
- GI50 [39]: 20.8 µM
- TGI [39]: 71.8 µM
- GI50 [40]: 22.1 µM
- TGI [40]: > 100 µM
- GI50 [41]: 21.5 µM
- TGI [41]: 52.1 µM
- GI50 [58]: 15 µM
- TGI [58]: 42.8 µM
- GI50 [42]: 35.7 µM
- TGI [42]: > 100 µM
- GI50 [43]: 21.4 µM
- TGI [43]: 66.5 µM
- GI50 [44]: 20.1 µM
- TGI [44]: 79.9 µM
- GI50 [45]: 27.5 µM
- TGI [45]: 87 µM
- GI50 [46]: 17.5 µM
- TGI [46]: 40.7 µM
- GI50 [48]: 22.4 µM
- TGI [48]: > 100 µM
